US12540148B2, “Lipophosphonoxins, their preparation and use” (USTAV ORGANICKE CHEMIE A BIOCHEMIE AV CR, V. V. I., priority 2019, dated 2026)
≈ marks a conversion by molar mass, not a printed value. Like-named read-outs stand apart in the source and are kept apart here.

Assays:
Test in all cases: MIC, microdilution method
Type in all cases: cell-based
[1] = system: Escherichia coli ATCC 25922 = CCM 3954; conditions: Escherichia coli
Protocol: (§1) Disposable microtiter plates are used for testing. Samples are dissolved in infusion medium from brain and heart (BHI, HiMedia Laboraties Pvt. Ltd., Czech Republic) and Mueller-Hinton broth (HiMedia Laboraties, see above) to a final concentration ranging from 200 μg/ml to 1.5625 μg/ml. Plates are inoculated with a standard amount of test bacteria—the density of the inoculum in the well corresponds to 10^5-6 CFU/ml (colony forming units/ml, i.e. the number of viable bacterial cells/ml). MIC values are read after 24/48 hours of incubation at 37° C. as the minimum inhibitory concentration of the test substance at which bacterial growth is inhibited. The minimum bactericidal concentration (MBC) is characterized as the minimum concentration of the sample required to achieve irreversible inhibition, i.e. to kill the bacteria after a defined incubation period. MBC is determined by the inoculation method. Using an applicator, 10 μl from the well of a microtiter plate with a defined concentration of the test substance is taken to inoculate the surface of blood agar (Trios, Czech Republic). MBC is determined as the lowest concentration that inhibits the visible growth of the bacterium used on agar.

[2] = system: Staphylococcus aureus ATCC 29213 = CCM 4223
Protocol: as §1

[3] = system: Escherichia coli CE5556; conditions: Escherichia coli, CE5556
Protocol: as §1

[4] = system: Pseudomonas aeruginosa ATCC 27853 = CCM 3955; conditions: Pseudomonas aeruginosa
Protocol: as §1

[5] = system: Enterobacter kobei 3683; conditions: Enterobacter kobei, 3683
Protocol: as §1

[6] = system: Staphylococcus aureus 4591; conditions: Staphylococcus aureus, 4591
Protocol: as §1

[7] = system: Pseudomonas aeruginosa R; conditions: Pseudomonas aeruginosa
Protocol: as §1

[8] = system: Enterococcus faecalis ATCC 29212 = CCM 4224; conditions: Enterococcus faecalis
Protocol: as §1

[9] = system: Enterococcus faecium 419/ANA; conditions: Enterococcus faecium, 419/ANA
Protocol: as §1

[10] = system: Staphylococcus epidermidis CCM 7221; conditions: Staphylococcus epidermidis, CCM7221
Protocol: as §1

[11] = system: Candida albicans ATCC 90028 = CCM 8161; conditions: Candida albicans
[12] = 24/48 hours at 37° C., read-out: MIC
[13] = Staphylococcus aureus, 24/48 hours at 37° C., read-out: MIC

Molecule `CCCCCCCCCCCCCCOP(=O)(CCN(CCCNC(=N)N)CCCNC(=N)N)OC[C@H]1O[C@@H](n2ccc(=O)[nH]c2=O)C(O)C1O` (stereo partly drawn) [DR7030, reference compound] has an MIC ([1]; 0% BSA, read-out: MIC) of 2 µg/mL (≈ 2.68 µM), an MIC ([1]; 4% BSA, read-out: MIC) greater than 200 µg/mL and an MIC ([2]; Staphylococcus aureus, 0% BSA, read-out: MIC) of 2 µg/mL (≈ 2.68 µM). It also gave an MIC ([2]; Staphylococcus aureus, 4% BSA, read-out: MIC) greater than 200 µg/mL.

With `C=CP(=O)(OCCCCCCCCCCCCOP(=O)(C=C)OCC(C)C)OCC(C)C` (stereo not drawn) [Example 34, Diisobutyl dodecane-1,12-diyl bis(vinylphosphonate)] the MIC [3, 12] was 128 µg/mL (≈ 259 µM), the MIC [1, 12] was 32 µg/mL (≈ 64.7 µM) and the MIC [4, 12] was greater than 128 µg/mL. It also gave an MIC [5, 12] greater than 128 µg/mL, an MIC [6, 12] of 16 µg/mL (≈ 32.4 µM) and an MIC [2, 13] of 8 µg/mL (≈ 16.2 µM). It also gave an MIC [7, 12] greater than 128 µg/mL, an MIC [8, 12] of 128 µg/mL (≈ 259 µM) and an MIC [9, 12] greater than 128 µg/mL. The MIC [10, 12] was 4 µg/mL (≈ 8.09 µM) and the MIC [11, 12] was 128 µg/mL (≈ 259 µM).

With `CCCCCOP(=O)(CCN(CCCN)CCCN)OCCCCCCCCOP(=O)(CCN(CCCN)CCCN)OCCCCC.Cl.Cl.Cl.Cl.Cl.Cl` (stereo not drawn) [Example 37, Octane-1,8-diyl dipentyl bis((2-(bis(3-aminopropyl)amino)-ethyl)phosphonate) hexahydrochloride] the MIC [3] was 8 µg/mL, the MIC ([1]; 0% BSA) was 2 µg/mL and the MIC ([1]; 4% BSA) was 4 µg/mL. It also gave an MIC ([1]; 24/48 hours at 37° C.) of 2 µg/mL, an MIC [4] of 16 µg/mL and an MIC [5] greater than 128 µg/mL. For the same molecule, the MIC [6] was 2 µg/mL, the MIC ([2]; 4% BSA) was 1 µg/mL and the MIC ([2]; 24/48 hours at 37° C.) was 1 µg/mL. It also gave an MIC ([2]; Staphylococcus aureus) of 1 µg/mL, an MIC [7] of 64 µg/mL and an MIC [8] of 16 µg/mL. The MIC [9] was greater than 128 µg/mL, the MIC [10] was 0.5 µg/mL and the MIC [11] was 32 µg/mL.

In the case of `C=CP(=O)(OCCCCCCCCCCOP(=O)(C=C)OCC(C)C)OCC(C)C` (stereo not drawn) [Example 39, Decane-1,10-diyl diisobutyl bis(vinylphosphonate)], the MIC [3, 12] is reported as 128 µg/mL (≈ 274 µM), the MIC [1, 12] is reported as 128 µg/mL (≈ 274 µM) and the MIC [4, 12] is reported as 128 µg/mL (≈ 274 µM). It also gave an MIC [5, 12] greater than 128 µg/mL, an MIC [6, 12] of 16 µg/mL (≈ 34.3 µM) and an MIC [2, 13] of 32 µg/mL (≈ 68.6 µM). For the same molecule, the MIC [7, 12] was 64 µg/mL (≈ 137 µM), the MIC [8, 12] was 64 µg/mL (≈ 137 µM) and the MIC [9, 12] was 128 µg/mL (≈ 274 µM). The MIC [10, 12] was 8 µg/mL (≈ 17.1 µM) and the MIC [11, 12] was greater than 128 µg/mL.

Molecule `CCCCOP(=O)(CCN(CCCN)CCCN)OCCCCCCCCCCOP(=O)(CCN(CCCN)CCCN)OCCCC.Cl.Cl.Cl.Cl.Cl.Cl` (stereo not drawn) [Example 41, Dibutyl decane-1,10-diyl bis((2-(bis(3-aminopropyl)amino)ethyl)phosphonate) hexahydrochloride] has an MIC [3] of 128 µg/mL, an MIC ([1]; 24/48 hours at 37° C.) of 64 µg/mL and an MIC [4] of 16 µg/mL. For the same molecule, the MIC [5] was greater than 128 µg/mL, the MIC [6] was 2 µg/mL and the MIC ([2]; Staphylococcus aureus) was 2 µg/mL. The MIC [7] was 8 µg/mL, the MIC [8] was 32 µg/mL and the MIC [9] was 128 µg/mL. The MIC [10] was 1 µg/mL and the MIC [11] was 64 µg/mL.

Work on `CCCCCOP(=O)(CCN(CCCN)CCCN)OCCCCCCCCCCOP(=O)(CCN(CCCN)CCCN)OCCCCC.Cl.Cl.Cl.Cl.Cl.Cl` (stereo not drawn) [Example 42, Decane-1,10-diyl dipentyl bis((2-(bis(3-aminopropyl)amino)-ethyl)phosphonate) hexahydrochloride] yielded an MIC [3] of 8 µg/mL, an MIC ([1]; 24/48 hours at 37° C.) of 2 µg/mL and an MIC [4] of 4 µg/mL. For the same molecule, the MIC [5] was 64 µg/mL, the MIC [6] was 1 µg/mL and the MIC ([2]; Staphylococcus aureus) was 0.5 µg/mL. For the same molecule, the MIC [7] was 8 µg/mL, the MIC [8] was 4 µg/mL and the MIC [9] was 32 µg/mL. It also gave an MIC [10] of 0.5 µg/mL and an MIC [11] of 16 µg/mL.
